# Patent US9414597B2, “Pesticidal mixtures including spiroheterocyclic pyrrolidine diones” (Syngenta Participations AG, priority 2011, dated 2016)
# “And” between values parts separate entries of the source, which are not always exact repeats. Identical values can stand only once.
# Legend:
# [1] = system: Myzus persicae (Green Peach Aphid); test: Myzus persicae feeding/residual contact activity, preventive (sunflower leaf discs); assay type: in vivo
# Description: (§1) The action to be expected E for a given active ingredient combination obeys the so-called COLBY formula and can be calculated as follows (COLBY, S. R. “Calculating synergistic and antagonistic responses of herbicide combination”. Weeds, Vol. 15, pages 20-22; 1967): • ppm=milligrams of active ingredient(=a.i.) per liter of spray mixture • X=% action by active ingredient A) using p ppm of active ingredient • Y=% action by active ingredient B) using q ppm of active ingredient.
# (§2) According to COLBY, the expected (additive) action of active ingredients A)+B) using p+q ppm of active ingredient is
# (§3) If the action actually observed (O) is greater than the expected action (E), then the action of the combination is super-additive, i.e. there is a synergistic effect. In mathematical terms the synergism factor SF corresponds to O/E. In the agricultural practice an SF of ≧1.2 indicates significant improvement over the purely complementary addition of activities (expected activity), while an SF of ≦0.9 in the practical application routine signals a loss of activity compared to the expected activity.
# Myzus persicae (Green Peach Aphid):
# feeding/residual contact activity, preventive
# Sunflower leaf discs are placed on agar in a 24-well microtiter plate and sprayed with the DMSO test solutions. After drying, the leaf discs are infested with an aphid population of mixed ages. […] (1 PPM=1 mg l^−1)
# [2] = system: Tetranychus urticae (Two-Spotted Spider Mite); test: Tetranychus urticae feeding/contact activity, preventive (bean leaf discs); assay type: in vivo
# Description: as §1, §2, §3
# Tetranychus urticae (Two-Spotted Spider Mite):
# feeding/contact activity, preventive
# Bean leaf discs on agar in 24-well microtiter plates are sprayed with the DMSO test solutions. After drying, the leaf discs are infested with mite populations of mixed ages. […] (1 PPM=1 mg l^−1)
# [3] = single active, 6.25 PPM AI, after 5 days
# [4] = single active, 12.5 PPM AI, after 5 days
# [5] = single active, 50 PPM AI, after 5 days
# [6] = single active, 100 PPM AI, after 5 days
# [7] = single active, 200 PPM AI, after 5 days
# [8] = single active, 400 PPM AI, after 5 days
# [9] = single active, 800 PPM AI, after 5 days
# [10] = single active, 3.125 PPM AI, after 5 days
compound,measurement,setting,value
spinetoram,AVERAGE DEAD IN % AFTER 5 DAYS,"[1]; Spinetoram alone, 100 PPM AI",0%
same,AVERAGE DEAD IN % AFTER 5 DAYS,[2]; [3],0%
same,AVERAGE DEAD IN % AFTER 5 DAYS,[2]; [4],25%
same,AVERAGE DEAD IN % AFTER 5 DAYS,"[2]; single active, 25 PPM AI, after 5 days",80%
same,AVERAGE DEAD IN % AFTER 5 DAYS,[2]; [5],95%
"CC(c1ccc(C(F)(F)F)nc1)S(C)(=O)=NC#N (stereo not drawn) [Sulfoxaflor, sulfoxaflor]",AVERAGE DEAD IN % AFTER 5 DAYS,"[1]; Sulfoxaflor alone, 0.2 PPM AI",20%
same,AVERAGE DEAD IN % AFTER 5 DAYS,"[2]; Sulfoxaflor alone, PPM AI r6:50 r7:100 r8:200 r9:400",0%
same,AVERAGE DEAD IN % AFTER 5 DAYS,[2]; [6],0%
same,AVERAGE DEAD IN % AFTER 5 DAYS,[2]; [7],0%
same,AVERAGE DEAD IN % AFTER 5 DAYS,[2]; [8],0%
same,AVERAGE DEAD IN % AFTER 5 DAYS,[2]; [9],35%
CNC(=O)c1cc(Cl)cc(C)c1NC(=O)c1cc(Br)nn1-c1ncccc1Cl [Chlorantraniliprol],AVERAGE DEAD IN % AFTER 5 DAYS,"[2]; Chlorantraniliprol alone, PPM AI r6:200 r7:400 r8:800",25% and 37%
emamectin benzoate,AVERAGE DEAD IN % AFTER 5 DAYS,"[1]; Emamectin Benzoate alone, PPM AI r7:12.5 r8:25 r9:50 r10:100 r11:200",0%
same,AVERAGE DEAD IN % AFTER 5 DAYS,"[1]; Table 46, Emamectin Benzoate alone, 12.5 PPM AI",0%
same,AVERAGE DEAD IN % AFTER 5 DAYS,"[1]; Table 46, Emamectin Benzoate alone, 25 PPM AI",0%
same,AVERAGE DEAD IN % AFTER 5 DAYS,"[1]; Table 46, Emamectin Benzoate alone, 50 PPM AI",0%
same,AVERAGE DEAD IN % AFTER 5 DAYS,"[1]; Table 46, Emamectin Benzoate alone, 100 PPM AI",0%
same,AVERAGE DEAD IN % AFTER 5 DAYS,"[1]; Table 46, Emamectin Benzoate alone, 200 PPM AI",0%
same,AVERAGE DEAD IN % AFTER 5 DAYS,"[2]; Emamectin Benzoate alone, 0.05 PPM AI",0%
same,AVERAGE DEAD IN % AFTER 5 DAYS,"[2]; Emamectin Benzoate alone, PPM AI r7:0.1 r8:0.05 r9:0.025 r10:0.0125 r11:0.00625",0%
"CC1(C)[C@H](C(=O)O[C@H](C#N)c2cccc(Oc3ccccc3)c2)[C@@H]1/C=C(\Cl)C(F)(F)F (racemic) [Lambda cyhalothrin, lambda-cyhalothrin]",AVERAGE DEAD IN % AFTER 5 DAYS,"[1]; Lambda Cyhalothrin alone, PPM AI r7-r10:50 r11-r14:25",57%
same,AVERAGE DEAD IN % AFTER 5 DAYS,[2]; [10],15%
"CC1=NNC(=O)N(/N=C/c2cccnc2)C1 [Pymetrozine, pymetrozine]",AVERAGE DEAD IN % AFTER 5 DAYS,"[1]; Pymetrozine alone, 0.4 PPM AI",0%
same,AVERAGE DEAD IN % AFTER 5 DAYS,"[1]; Pymetrozine alone, 0.8 PPM AI",25%
same,AVERAGE DEAD IN % AFTER 5 DAYS,"[1]; Table 48, Pymetrozine alone, 0.8 PPM AI",25%
same,AVERAGE DEAD IN % AFTER 5 DAYS,"[2]; Pymetrozine alone, 100 PPM AI",0%
same,AVERAGE DEAD IN % AFTER 5 DAYS,"[2]; Pymetrozine alone, 200 PPM AI",0%
same,AVERAGE DEAD IN % AFTER 5 DAYS,[2]; [6],0%
same,AVERAGE DEAD IN % AFTER 5 DAYS,[2]; [7],0%
same,AVERAGE DEAD IN % AFTER 5 DAYS,[2]; [8],0%
same,AVERAGE DEAD IN % AFTER 5 DAYS,[2]; [9],50%
"CNC(=O)c1cc(Cl)cc(C)c1NC(=O)c1cc(Br)nn1-c1ncccc1Cl [Chlorantraniliprole, chlorantraniliprole]",AVERAGE DEAD IN % AFTER 5 DAYS,"[1]; Chlorantraniliprole alone, 50 PPM AI",0%
same,AVERAGE DEAD IN % AFTER 5 DAYS,"[1]; Table 45, Chlorantraniliprole alone, 50 PPM AI",0%
same,AVERAGE DEAD IN % AFTER 5 DAYS,"[2]; Chlorantraniliprole alone, 200 PPM AI",25%
same,AVERAGE DEAD IN % AFTER 5 DAYS,"[2]; Chlorantraniliprole alone, PPM AI r6:25 r7:50 r8:100",0%
CCOC(=O)OC1=C(c2c(C)cc(Cl)cc2C)C(=O)NC12CCN(OC)CC2 [Compound T1iii.055],AVERAGE DEAD IN % AFTER 5 DAYS,"[1]; T1iii.055 alone, 12.5 PPM AI",0%
same,AVERAGE DEAD IN % AFTER 5 DAYS,"[1]; T1iii.055 alone, 25 PPM AI",0%
same,AVERAGE DEAD IN % AFTER 5 DAYS,"[1]; T1iii.055 alone, PPM AI r6:200 r7:100 r8:50 r9:25, 25 ppm active ingredient",50%
same,AVERAGE DEAD IN % AFTER 5 DAYS,"[1]; T1iii.055 alone, PPM AI r6:200 r7:100 r8:50 r9:25, 200 ppm active ingredient",80%
same,AVERAGE DEAD IN % AFTER 5 DAYS,"[1]; T1iii.055 alone, PPM AI r7:200 r8:100 r9:50",0%
same,AVERAGE DEAD IN % AFTER 5 DAYS,"[2]; T1iii.055 alone, 12.5 PPM AI",0%
same,AVERAGE DEAD IN % AFTER 5 DAYS,"[2]; single active, 1.56 PPM AI, after 5 days",0%
same,AVERAGE DEAD IN % AFTER 5 DAYS,[2]; [10],0%
same,AVERAGE DEAD IN % AFTER 5 DAYS,[2]; [3],0%
same,AVERAGE DEAD IN % AFTER 5 DAYS,[2]; [4],0%
CCOC(=O)OC1=C(c2c(C)cc(C)cc2C)C(=O)N(C)C12CCN(OC)CC2 [Compound T1.058],AVERAGE DEAD IN % AFTER 5 DAYS,"[2]; T1.058 alone, 50 PPM AI",0%
same,AVERAGE DEAD IN % AFTER 5 DAYS,"[2]; T1.058 alone, 100 PPM AI",55%
same,AVERAGE DEAD IN % AFTER 5 DAYS,"[2]; T1.058 alone, PPM AI r7:50 r8:25 r9:12.5 r10:6.25 r11:3.125 r12-r15:50",0%
abamectin,AVERAGE DEAD IN % AFTER 5 DAYS,"[2]; Abamectin alone, PPM AI r6:0.00625 r7:0.0125 r8:0.025 r9:0.05 r10:0.1",0%
"CNC(=O)c1cc(C#N)cc(C)c1NC(=O)c1cc(Br)nn1-c1ncccc1Cl [Cyantraniliprole, cyantraniliprole]",AVERAGE DEAD IN % AFTER 5 DAYS,"[1]; Cyantraniliprole alone, 1.5 PPM AI",0%
"Cc1nn(C)c(/C(OC(=O)C(C)(C)C)=C(\C#N)c2ccc(C(C)(C)C)cc2)c1C [Cyenopyrafen, cyenopyrafen]",AVERAGE DEAD IN % AFTER 5 DAYS,"[1]; Cyenopyrafen alone, 200 PPM AI",0%
same,AVERAGE DEAD IN % AFTER 5 DAYS,"[2]; Cyenopyrafen alone, 1.5 PPM AI",0%
same,AVERAGE DEAD IN % AFTER 5 DAYS,"[2]; single active, 1.5 PPM AI, after 5 days",0%
same,AVERAGE DEAD IN % AFTER 5 DAYS,"[2]; single active, 3 PPM AI, after 5 days",40%
same,AVERAGE DEAD IN % AFTER 5 DAYS,"[2]; single active, 6 PPM AI, after 5 days",85%
same,AVERAGE DEAD IN % AFTER 5 DAYS,"[2]; single active, 12 PPM AI, after 5 days",92%
CCOC(=O)OC1=C(c2c(C)cc(Cl)cc2C)C(=O)N(C)C12CCN(OC)CC2 [Compound T1.055],AVERAGE DEAD IN % AFTER 5 DAYS,"[1]; T1.055 alone, 50 PPM AI",10%
same,AVERAGE DEAD IN % AFTER 5 DAYS,"[1]; T1.055 alone, PPM AI r6:100 r7:50 r8:25 r9:12.5",0%
same,AVERAGE DEAD IN % AFTER 5 DAYS,"[1]; T1.055 alone, PPM AI r6:100 r7:50 r8:25 r9:12.5 r10:6.25",0%
same,AVERAGE DEAD IN % AFTER 5 DAYS,"[1]; Table 45, T1.055 alone, 50 PPM AI",0%
same,AVERAGE DEAD IN % AFTER 5 DAYS,"[1]; Table 45, T1.055 alone, 100 PPM AI",25%
same,AVERAGE DEAD IN % AFTER 5 DAYS,"[1]; Table 45, T1.055 alone, 200 PPM AI",65%
same,AVERAGE DEAD IN % AFTER 5 DAYS,"[1]; Table 46, T1.055 alone, 50 PPM AI",25%
same,AVERAGE DEAD IN % AFTER 5 DAYS,"[1]; Table 48, T1.055 alone, 12.5 PPM AI",0%
same,AVERAGE DEAD IN % AFTER 5 DAYS,"[1]; Table 48, T1.055 alone, 25 PPM AI",0%
same,AVERAGE DEAD IN % AFTER 5 DAYS,"[1]; Table 48, T1.055 alone, 50 PPM AI",65%
same,AVERAGE DEAD IN % AFTER 5 DAYS,"[1]; Table 48, T1.055 alone, 100 PPM AI",65%
same,AVERAGE DEAD IN % AFTER 5 DAYS,"[1]; Table 48, T1.055 alone, 200 PPM AI",80%
same,AVERAGE DEAD IN % AFTER 5 DAYS,"[2]; T1.055 alone, 100 PPM AI",0%
same,AVERAGE DEAD IN % AFTER 5 DAYS,"[2]; T1.055 alone, 200 PPM AI",0%
same,AVERAGE DEAD IN % AFTER 5 DAYS,"[2]; T1.055 alone, PPM AI r6:200 r7:100 r8:50",0%
"CN1COCN(Cc2cnc(Cl)s2)/C1=N\[N+](=O)[O-] [Thiamethoxam, thiamethoxam]",AVERAGE DEAD IN % AFTER 5 DAYS,"[1]; Thiamethoxam alone, 0.8 PPM AI",0%
same,AVERAGE DEAD IN % AFTER 5 DAYS,"[2]; Thiamethoxam alone, PPM AI r6:50 r7:100 r8:200 r9:400 r10:100 r11:200 r12:400",0%
same,AVERAGE DEAD IN % AFTER 5 DAYS,[2]; [5],0%
same,AVERAGE DEAD IN % AFTER 5 DAYS,[2]; [6],0%
same,AVERAGE DEAD IN % AFTER 5 DAYS,[2]; [7],0%
same,AVERAGE DEAD IN % AFTER 5 DAYS,[2]; [8],0%
same,AVERAGE DEAD IN % AFTER 5 DAYS,[2]; [9],37%
